Where a SMILES comes first, the peptide text is derived from it. [ ]: non-standard residue; d: D form. The star is where a group is joined. sY = N[C@@H](Cc1ccc(OS(=O)(=O)O)cc1)C(=O)O; Cbz = O=C(OCc1ccccc1)*; Boc = CC(C)(C)OC(=O)*
Experiments:
[1] = molecular target: T1, CCK receptor (brain, cerebral cortex) (Cavia porcellus, UniProt H0VZC5); assay: 125I-CCK-33 receptor binding (brain) method; set-up: species or system guinea pig (male Hartley); details: 125I-CCK-33, guinea pig cerebral cortex, 25° C., 2 hours
T1 construct: The cerebral cortex was dissected and used as a receptor source; from tissue; host or cells: cerebral cortex of male Hartley guinea pigs, membrane homogenate
T1 sequence (H0VZC5 1-426): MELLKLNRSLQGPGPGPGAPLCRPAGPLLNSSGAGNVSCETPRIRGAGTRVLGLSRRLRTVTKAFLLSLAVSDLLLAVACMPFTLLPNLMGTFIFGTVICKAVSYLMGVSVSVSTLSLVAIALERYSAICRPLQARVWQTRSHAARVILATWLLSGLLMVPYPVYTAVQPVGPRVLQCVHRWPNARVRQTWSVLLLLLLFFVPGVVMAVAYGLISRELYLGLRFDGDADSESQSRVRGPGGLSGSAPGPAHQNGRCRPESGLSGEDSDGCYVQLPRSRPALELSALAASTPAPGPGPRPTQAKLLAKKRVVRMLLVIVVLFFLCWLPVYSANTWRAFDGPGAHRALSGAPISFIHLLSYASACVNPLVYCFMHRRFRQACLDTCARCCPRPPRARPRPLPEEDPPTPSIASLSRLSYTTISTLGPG
Excerpt: (§1) Screening of the novel compounds according to the present invention to determine biological activity and obtain an IC50 value for them, in order to identify significant CCK-antagonism, may be accomplished using an ^125 I-CCK receptor binding assay and in vitro isolated tissue preparations. To identify significant gastrin antagonism, ^125 I-gastrin and ^3 H-pentagastrin binding assays are used. These tests involve the following:
CCK receptor binding (brain) method
CCK-33 was radiolabeled and the binding was performed according to the description for the pancreas method, with modifications according to Saito et al., J. Neurochem., 37, 483-490, 1981.
Male Hartley guinea pigs (300-500 g) were sacrificed by decapitation, and the brains were removed and placed in ice-cold 50 mM Tris HCl plus 7.58 g/l Trizma-7.4 [pH 7.4 at 25° C.]. The cerebral cortex was dissected and used as a receptor source and each gram of fresh guinea pig brain tissue was homogenized in 10 ml of Tris/Trizma buffer with a Brinkmann polytron PT-10. The homogenates were centrifuged at 42,000 g for 15 minutes, then the resulting pellets were resuspended in 200 volumes of binding assay buffer (10 mM N-2-hydroxy-ethyl-piperazine-N'-2-ethane-sulfonic acid (HEPES), pH 7.7 at 25° C., 5 mM MgCl2, 1 mM ethyl glycol-bis-(β-amino-ethyl-ether-N,N'-tetraacetic acid (EGTA), 0.4% BSA (bovine serum albumin) and 0.25 mg/ml bacitracin, pH 6.5).
The remainder of the binding assay method was as described for the pancreas method, except that the reaction mixtures were incubated at 25° C. for 2 hours before centrifugation.

[2] = molecular target: T2, Gastrin receptor (gastric glands) (Cavia porcellus, UniProt H0VZC5); assay: 125I-gastrin receptor binding in guinea pig gastric glands; set-up: species or system guinea pig (male Hartley); details: 25° C., 30 minutes
T2 construct: Gastric mucosa from male Hartley guinea pigs (300-500 g body weight); from tissue; host or cells: isolated gastric mucosal glands of male Hartley guinea pigs
T2 sequence (H0VZC5 1-426): T1 sequence (H0VZC5 1-426)
Excerpt: as §1
Gastrin Receptor Binding in Guinea Pig Gastric Glands
Guinea pig gastric mucosal glands were prepared by the procedure of Berglingh and Obrink, Acta Physiol. Scand. 96: 150 (1976), with a slight modification according to Praissman et al. C. J. Receptor Res. 3: (1983). Gastric mucosa from male Hartley guinea pigs (300-500 g body weight) were washed thoroughly and minced with fine scissors in standard buffer consisting of the following: 130 mM NaCl, 12 mM NaHCO3, 3 mM NaH2 PO4, 3 mM Na2 HPO4, 3 mM K2 HPO4, 2 mM MgSO4, 1 mM CaCl2, 5 mM glucose and 4 mM L-glutamine, 25 mM HEPES at pH 7.4. […]
The washed guinea pig gastric glands were resuspended in 25 ml of standard buffer containing 0.25 mg/ml of bacitracin. […] The radioactivity of the filters was measured using a Beckman gamma 5500 for ^125 I-gastrin or liquid scintillation counting for ^3 H-pentagastrin.

CCK receptor = details: background, structure-function studies; cited from earlier work
gastrin = details: background, in vitro; cited from earlier work
CCK receptor (pancreas) = molecular target: T3, CCK receptor (pancreas) (Rattus norvegicus, UniProt P30551); assay: 125I-CCK-33 receptor binding (pancreas) method; set-up: species or system rat (male Sprague-Dawley); details: protease inhibitors added to binding assay buffer
T3 construct: The whole pancreas of a male Sprague-Dawley rat (200-350 g); from tissue; host or cells: whole pancreas of male Sprague-Dawley rat, membrane homogenate
T3 sequence (P30551 1-444): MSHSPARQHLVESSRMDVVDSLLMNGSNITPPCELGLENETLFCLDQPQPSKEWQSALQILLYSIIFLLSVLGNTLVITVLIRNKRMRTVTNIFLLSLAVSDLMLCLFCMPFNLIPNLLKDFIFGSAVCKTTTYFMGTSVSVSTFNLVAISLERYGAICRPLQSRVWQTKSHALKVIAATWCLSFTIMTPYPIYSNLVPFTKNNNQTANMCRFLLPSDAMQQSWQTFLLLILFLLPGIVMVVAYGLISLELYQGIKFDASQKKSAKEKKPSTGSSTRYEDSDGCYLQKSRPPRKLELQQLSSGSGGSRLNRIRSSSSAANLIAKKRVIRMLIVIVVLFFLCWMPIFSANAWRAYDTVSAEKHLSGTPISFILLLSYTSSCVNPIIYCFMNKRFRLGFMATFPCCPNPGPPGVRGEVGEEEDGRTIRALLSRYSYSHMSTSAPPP
Excerpt: as §1, with “To identify significant gastrin antagonism, ^125 I-gastrin and ^3 H-pentagastrin binding assays are used.” left out
CCK receptor binding (pancreas) method
CCK-33 was radiolabeled with ^125 I-Bolton Hunter reagent (2000 Ci/mmole), as described by Sankara et al. (J. Biol. Chem., 254, 9349-9351, 1979).
The whole pancreas of a male Sprague-Dawley rat (200-350 g), which had been sacrificed by decapitation, was dissected free of fat tissue and homogenized in 20 volumes of ice-cold 50 mM Tris HCl (pH 7.7 at 25° C.) with a Brinkmann Polytron PT-10. The homogenates were centrifuged at 48,000 g for 10 minutes, then the resulting pellets were resuspended in Tris Buffer, centrifuged as above, and resuspended in 200 volumes of binding assay buffer (50 mM Tris HCl, pH 7.7 at 25° C., 5 mM dithiothreitol, 0.1 mM bacitracin, 1.2 mM phenylmethane sulfonyl fluoride and 0.5 mM o-phenanthroline).
The supernatant was aspirated and discarded, and the pellets were counted with a Beckman Gamma 5000.

CCCCCN(CCCCC)C(=O)C(CCC(=O)OCc1ccccc1)NC(=O)Nc1ccc(Cl)cc1 (racemic) [Compound 8, (RS)-4-[(4-chlorophenylaminocarbonyl)amino]-5-(dipentylamino)-5-oxo-1-(phenylmethyloxy)pentanoic acid]
IC50 [1]: 5.3 µM
IC50 [2]: 22 µM

O=C(O)CC[C@@H](NC(=O)c1cc2ccccc2[nH]1)C(=O)N(C1CCCCC1)C1CCCCC1 [Compound 10, (R)-5-(dicyclohexylamino)-4[(1H-indol-2-ylcarbonyl)amino]-5-oxo-pentanoic acid]
IC50 [1]: 3.4 µM
IC50 [2]: 4.1 µM

CSCC[C@H](NC(=O)[C@H](Cc1ccc(OS(=O)(=O)O)cc1)NC(=O)OCc1ccccc1)C(=O)NCC(=O)N[C@@H](Cc1c[nH]c2ccccc12)C(=O)N[C@@H](CCSC)C(=O)N[C@@H](CC(=O)O)C(N)=O [Cbz-Tyr(SO3 H)-Met-Gly-Trp-Met-Asp-NH2] (Cbz-[sY]MGWMD-NH2)
CCK antagonism (in words) (CCK receptor): partial agonist

CCCN(CCC)C(=O)C(CCC(=O)O)NC(=O)c1ccccc1 (racemic) [Compound 1, reference compound]
gastrin antagonism (in words) (gastrin): very weak in vitro antagonists

CSCC[C@H](N)C(=O)N[C@@H](CC(=O)O)C(=O)N[C@@H](Cc1ccccc1)C(N)=O [Met-Asp-Phe-NH2] (H-Met-Asp-Phe-NH2)
CCK antagonism (in words) (CCK receptor): can function as CCK antagonists

CCCC(=O)Nc1nc2c(ncn2[C@@H]2O[C@@H]3COP(=O)(O)O[C@H]3[C@H]2OC(=O)CCC)c(=O)[nH]1 [dibutyryl cyclic GMP]
CCK antagonism (in words) (CCK receptor): most potent

CCCCCN(CCCCC)C(=O)C(CCC(=O)O)NC(=O)c1ccc(Cl)c(Cl)c1 (racemic) [Compound 2, reference compound]
IC50 [1]: 2.2 µM

CSCC[C@H](NC(=O)OC(C)(C)C)C(=O)N[C@@H](CC(=O)O)C(=O)N[C@@H](Cc1ccccc1)C(N)=O [Boc-Met-Asp-Phe-NH2] (Boc-Met-Asp-Phe-NH2)
CCK antagonism (in words) (CCK receptor): can function as CCK antagonists

O=S(=O)(F)Cc1ccccc1 [phenylmethane sulfonyl fluoride]
effect on the 125I-CCK receptor binding assay (in words) (CCK receptor (pancreas)): no effect

c1cnc2c(c1)ccc1cccnc12 [o-phenanthroline]
effect on the 125I-CCK receptor binding assay (in words) (CCK receptor (pancreas)): no effect

From patent publication US4880938A, “Amino acid analogs” (priority 1986, dated 1989)
